The text below walks through data of patent US20240269299A1, “POLYETHYLENE GLYCOL-DRUG CONJUGATE AND USE THEREOF” (CHONGQING UPGRA BIOTECHNOLOGY CO. LTD., priority 2021, published 2024).

The experiment relates to choroidal neovascularization (CNV). Kind of experiment: Laser modeling of choroidal neovascularization (CNV) in mice. Particulars: 1 μL injected into vitreous space one week after photocoagulation. Type of experiment: in vivo, C57BL/6J suckling mice. As for the experimental part:
Experimental animals: C57BL/6J suckling mice, where the mice were all female and subjected to laser modeling three days after birth.
A mixed solution of 20% V/V PEG300, 20% V/V anhydrous ethanol and 60% V/V normal saline was used as a solvent for compound 39-205 to prepare a 20 mg/mL solution for use in mice No. 6 and No. 7, respectively. A saline solution of aflibercept was used as a positive control for mouse No. 5.
After the mice were anesthetized, a semiconductor laser was used to perform retinal photocoagulation around optic discs under a retinoscope. An irradiation site was between blood vessels that were one optic disc diameter away from the optic disc. The generation of bubbles after photocoagulation was an indicator of breaking Bruch's membrane. The laser modeling conditions for mice No. 6 and No. 7 were 350 mw and 200 ms, and the laser modeling conditions for mouse No. 5 were 300 mw, 260 ms, and the photocoagulation time was 1 s. One week after photocoagulation, medication treatments started for the mice. The administration method was: 1 μL of each of the 20 mg/mL solution of compound 39-205 prepared above and a normal saline solution of aflibercept was injected into vitreous space.

As to aflibercept, for the setting “compound 39-205 as 20 mg/mL solution, aflibercept in normal saline, FIG. 1 to FIG. 4”, the “area of the laser spot after administration” value is “did not significantly reduce”. Further, the “fundus angiography after administration” value (mouse No. 5, FIG. 1) is on record as “not significantly improved”.
